Test results reported in patent publication US20220119354A1, “DIAMINO-SUBSTITUTED PYRIDINES AND PYRIMIDINES AS HERBICIDES” (FMC Corporation, priority 2019, published 2022).

Columns and labels:
Assay type in all cases: in vivo
[1] = system: galium (catchweed bedstraw, Galium aparine); experiment: Test A postemergence, galium; details: 0 to 100 scale
How it was run: (§1)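 Visual injury scored against untreated controls about 10 d after treatment, scale 0 = no effect to 100 = complete control. Compounds, formulated with surfactant in a non-phytotoxic solvent, went on as directed soil spray preemergence or onto 2–10 cm, one- to two-leaf plants postemergence; loam–sand soil, greenhouse.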

[2] = system: foxtail, giant (Setaria faberii); experiment: Test A preemergence, giant foxtail; details: 0 to 100 scale
How it was run: as §1

kochia (Kochia scoparia) [3] = experiment: Test A postemergence, kochia; details: 0 to 100 scale
How it was run: as §1

[4] = system: barnyardgrass (Echinochloa crus-galli); experiment: Test A preemergence, barnyardgrass; details: 0 to 100 scale
How it was run: as §1

[5] = system: blackgrass (Alopecurus myosuroides); experiment: Test A postemergence, blackgrass; details: 0 to 100 scale
How it was run: as §1

rice (Oryza sativa) = experiment: Test B flooded paddy test, rice; details: Flood, 250 g ai/ha, applied to paddy water, 2-leaf stage, visual evaluation after 13 to 15 d
How it was run: (§2)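 Growth to two leaves preceded treatment. Flooding to 3 cm above soil surface, then water-applied compound; depth kept constant. Scored visually relative to controls after 13–15 d greenhouse; 100 means full control.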

[6] = system: pigweed (Amaranthus retroflexus); experiment: Test A preemergence, pigweed; details: 0 to 100 scale
How it was run: as §1

[7] = system: pigweed (Amaranthus retroflexus); experiment: Test A postemergence, pigweed; details: 0 to 100 scale
How it was run: as §1

[8] = system: barnyardgrass (Echinochloa crus-galli); experiment: Test B flooded paddy test, barnyardgrass; details: Flood, 250 g ai/ha, applied to paddy water, 2-leaf stage, visual evaluation after 13 to 15 d
How it was run: as §2

[9] = system: foxtail, giant (Setaria faberii); experiment: Test A postemergence, giant foxtail; details: 0 to 100 scale
How it was run: as §1

[10] = system: ducksalad (Heteranthera limosa); experiment: Test B flooded paddy test, ducksalad; details: Flood, 250 g ai/ha, applied to paddy water, 2-leaf stage, visual evaluation after 13 to 15 d
How it was run: as §2

kochia (Kochia scoparia) [11] = experiment: Test A preemergence, kochia; details: 0 to 100 scale
How it was run: as §1

[12] = system: wheat (Triticum aestivum); experiment: Test A postemergence, wheat; details: 0 to 100 scale
How it was run: as §1

[13] = system: barnyardgrass (Echinochloa crus-galli); experiment: Test A postemergence, barnyardgrass; details: 0 to 100 scale
How it was run: as §1

[14] = system: ragweed (common ragweed, Ambrosia elatior); experiment: Test A postemergence, ragweed; details: 0 to 100 scale
How it was run: as §1

[15] = system: sedge, umbrella (small-flower umbrella sedge, Cyperus difformis); experiment: Test B flooded paddy test, umbrella sedge; details: Flood, 250 g ai/ha, applied to paddy water, 2-leaf stage, visual evaluation after 13 to 15 d
How it was run: as §2

[16] = system: ryegrass, Italian (Lolium multiflorum); experiment: Test A preemergence, Italian ryegrass; details: 0 to 100 scale
How it was run: as §1

[17] = system: ryegrass, Italian (Lolium multiflorum); experiment: Test A postemergence, Italian ryegrass; details: 0 to 100 scale
How it was run: as §1

[18] = system: ragweed (common ragweed, Ambrosia elatior); experiment: Test A preemergence, ragweed; details: 0 to 100 scale
How it was run: as §1

corn (Zea mays) = experiment: Test A postemergence, corn; details: 0 to 100 scale
How it was run: as §1

[19] = 125 g ai/ha, 0 is no effect, 100 is complete control

SMILES: CC(COc1cc(F)cc(F)c1)Nc1ncc(C(F)(F)F)c(N)n1 (stereo not drawn) [Compound 33]
- Plant response rating, Galium ([1]; 125 g ai/ha): 20
- Plant response rating, Galium ([1]; 500 g ai/ha): 60
- Foxtail, Giant plant response rating [2, 19]: 0
- Plant response rating, Foxtail, Giant ([2]; 500 g ai/ha): 30
- Plant response rating, Kochia (kochia (Kochia scoparia) [3]; 125 g ai/ha): 0
- Plant response rating, Kochia (kochia (Kochia scoparia) [3]; 500 g ai/ha): 30
- Barnyardgrass plant response rating [4, 19]: 0
- Plant response rating, Barnyardgrass ([4]; 500 g ai/ha): 0
- Plant response rating, Blackgrass ([5]; 125 g ai/ha): 0
- Plant response rating, Blackgrass ([5]; 500 g ai/ha): 0
- Plant response rating, Rice (0 to 100 scale, 0 is no effect, 100 is complete control) (rice (Oryza sativa)): 0
- Pigweed plant response rating [6, 19]: 20
- Plant response rating, Pigweed ([6]; 500 g ai/ha): 50
- Plant response rating, Pigweed ([7]; 125 g ai/ha): 0
- Plant response rating, Pigweed ([7]; 500 g ai/ha): 30
- Plant response rating, Barnyardgrass (0 to 100 scale, 0 is no effect, 100 is complete control) [8]: 0
- Plant response rating, Foxtail, Giant ([9]; 125 g ai/ha): 0
- Plant response rating, Foxtail, Giant ([9]; 500 g ai/ha): 0
- Plant response rating, Ducksalad (0 to 100 scale, 0 is no effect, 100 is complete control) [10]: 70
- Kochia plant response rating (kochia (Kochia scoparia) [11]; [19]): 0
- Plant response rating, Kochia (kochia (Kochia scoparia) [11]; 500 g ai/ha): 30
- Plant response rating, Wheat ([12]; 125 g ai/ha): 0
- Plant response rating, Wheat ([12]; 500 g ai/ha): 0
- Plant response rating, Barnyardgrass ([13]; 125 g ai/ha): 0
- Plant response rating, Barnyardgrass ([13]; 500 g ai/ha): 0
- Plant response rating, Ragweed ([14]; 125 g ai/ha): 0
- Plant response rating, Ragweed ([14]; 500 g ai/ha): 0
- Plant response rating, Sedge, Umbrella (0 to 100 scale, 0 is no effect, 100 is complete control) [15]: 25
- Ryegrass, Italian plant response rating [16, 19]: 0
- Plant response rating, Ryegrass, Italian ([16]; 500 g ai/ha): 0
- Plant response rating, Ryegrass, Italian ([17]; 125 g ai/ha): 0
- Plant response rating, Ryegrass, Italian ([17]; 500 g ai/ha): 0
- Ragweed plant response rating [18, 19]: 0
- Plant response rating, Ragweed ([18]; 500 g ai/ha): 0
- Plant response rating, Corn (corn (Zea mays); 125 g ai/ha): 0
- Plant response rating, Corn (corn (Zea mays); 500 g ai/ha): 0
